What is called IC50 is the midpoint of a concentration-inhibition curve.

One series relates to PC-3. The experiment in a line: Cytotoxicity against human PC-3 cells assessed as inhibition of cell growth and measured after 72 hrs resazurin reduction assay. The note with it: PC-3, 72 h. It counts as functional, cell-based.
Series [1] can be described thus: Cytotoxicity against human WPMY-1 cells assessed as inhibition of cell growth and measured after 72 hrs resazurin reduction assay. It counts as toxicity, cell-based. The note with it: for IC50 at 72 h: WPMY-1 cells. A general note: Alamar Blue is a resazurin reagent that responds to reducing activity.
The test system of series [2] is SH-SY5Y. The experiment in a line: Cytotoxicity against human SH-SY5Y cells assessed as inhibition of cell growth and measured after 72 hrs resazurin reduction assay. It counts as functional, cell-based.
Another series concerns HeLa. The series can be described thus: Cytotoxicity against human HeLa cells assessed as inhibition of cell growth and measured after 72 hrs resazurin reduction assay. It counts as functional, cell-based.
In series [3] the test system is SH-SY5Y. The series can be described thus: Cytotoxicity against human SH-SY5Y cells assessed as inhibition of cell growth and measured upto 72 hrs by clonogenic assay. Format: functional, cell-based.

In the case of `O=C(O[C@H](Cc1ccc(O)c(O)c1)C(=O)O)c1cc(-c2ccc(O)c(O)c2)c2cc(O)c(O)cc2c1`, the IC50 with PC-3 and with SH-SY5Y [2] was more than 10000 nM in each case. Besides, the IC50 at 72 h in series [1] was more than 10000 nM.

`COc1cccc2c1C(=O)c1c(O)c3c(c(O)c1C2=O)C[C@@](O)(C(=O)CO)C[C@@H]3O[C@H]1C[C@H](N)[C@H](O)[C@H](C)O1` [DOXORUBICIN]: the IC50 in the series with PC-3 came to 10 nM; with HeLa, 1960 nM; with SH-SY5Y [2] it was 40 nM. In addition, the IC50 at 72 h in series [1] is 20 nM.

Turning to `COc1cc([C@H]2c3cc(O)c(OC)cc3C=C3C(=O)OC[C@H]4O[C@@](CO)(O[C@H]5O[C@H](COC(=O)/C=C/c6ccc(O[C@@H]7O[C@@H](C)[C@H](O)[C@@H](O)[C@H]7O)cc6)[C@@H](O)[C@H](O)[C@H]5O)[C@@H](OC(=O)[C@@H]32)[C@@H]4O)ccc1O`, the IC50 with PC-3 and in the series on SH-SY5Y [2] was more than 10000 nM throughout. Also, the Activity result in series [1] (wpmy-1, 72 h, time 72 hrs) was “Non-Toxic”.

With `O=C(/C=C/c1ccc(O)c(O)c1)O[C@H](Cc1ccc(O)c(O)c1)C(=O)O` [ROSMARINIC ACID], the IC50 with PC-3 and with SH-SY5Y [2] was more than 10000 nM in each case. In addition, in series [1], the IC50 at 72 h is more than 10000 nM.

As to `O=C(OC(Cc1ccc(O)c(O)c1)C(=O)O)C1=Cc2cc(O)c(O)cc2[C@H](c2ccc(O)c(O)c2)[C@H]1C(=O)O[C@@H](Cc1ccc(O)c(O)c1)C(=O)O` (some centres undefined), the IC50 in the series on PC-3 and in the series with SH-SY5Y [2] was more than 10000 nM each time. Besides, in series [1], the IC50 at 72 h is more than 10000 nM.

Turning to `CC(=O)O[C@@]12CO[C@@H]1C[C@H](O)[C@@]1(C)C(=O)[C@H](O)C3=C(C)[C@@H](OC(=O)[C@H](O)[C@@H](NC(=O)OC(C)(C)C)c4ccccc4)C[C@@](O)([C@@H](OC(=O)c4ccccc4)[C@H]21)C3(C)C` [DOCETAXEL ANHYDROUS], the IC50 with SH-SY5Y [3] turned out to be 1.8 nM; in the series with PC-3 it was 0.6 nM. Moreover, in series [1], the IC50 at 72 h came to 210 nM.

The values above are taken from ChEMBL document CHEMBL5137125, “Echiumin E, an Aryl Dihydronaphthalene Lignan from the Australian Invasive Plant Paterson's Curse (Echium plantagineum)” (J Nat Prod, 2022).
